Here are results for 1 compound from patent US11911353B2, “Fatty acid synthase inhibitor and application thereof” (Jiangnan University, priority 2019, dated 2024).

Common to all, as to assay type: cell-based
Test [1] concerns colon cancer cells HCT116. Nature of the test: MTT tumor proliferation IC50, HCT116. Conditions: Homo sapiens, HCT-116, 72 hours of incubation. An excerpt:
IC50 (half maximal inhibitory concentration) refers to the half inhibitory concentration of a measured antagonist. It can indicate that a certain concentration of a certain drug or substance (inhibitor) induces tumor cell apoptosis by 50%, and this concentration is referred to as 50% inhibitory concentration, namely, the corresponding concentration when the ratio of apoptotic cells to the total number of cells is equal to 50%. The IC50 value can be used to measure the ability of a drug to induce apoptosis, that is, the higher the inducing ability, the lower the value, which also can indicate the tolerance degree of a certain cell to a drug on the contrary. • (1) Cells in the logarithmic phase are collected, the concentration of a cell suspension is adjusted, it is appropriate to place 100 μl cells in each well of a 96-well plate, the cells are inoculated into the plate to adjust the density of to-be-detected cells to be 1000-10000 cells/well, and edge wells are filled with sterile PBS. • (2) The cells are incubated under 5% CO2 at 37° C., an original culture medium is discarded after complete cell adherence, 200 μl of 1 wt % FBS culture medium containing 0.01 μM, 0.1 μM, 1 μM, 5 μM and 10 μM compound I-1 or cerulenin is added into each well, and there are 6 wells run in duplicate. An equal volume of DMSO is added as a negative control. • (3) After 72 hours of incubation, the cells are photographed for state recording, an original culture medium is discarded, and 100 μl of serum-free culture medium containing 0.5 mg/ml MTT (3-(4,5-dimethylthiazole-2)-2,5-diphenyltetrazolium bromide, trade name thiazolyl blue) is added into each well. • (4) After 2-4 hours of incubation, an original culture medium is discarded, and 150 μl of dimethyl sulfoxide (DMSO) is added into each well and shaken at 300 rpm for 10 minutes to fully dissolve purple crystals. • (5) The absorbance of each well at OD570 nm is measured by an enzyme-linked immunodetection instrument, the absorbance at OD630 nm is used as a reference, dual-wavelength measurement is carried out, and survival rate results are calculated according to the following formula: Cell survival rate=(OD570−OD630)/(OD570 negative control−OD630 negative control);
wherein, OD570: OD570 value of each treatment group; OD630: OD630 value of each treatment group; OD570 control: OD570 value of the negative control group; OD630 control: OD630 value of the negative control group. • (6) The survival rate results are processed with graphpad 6.0 software according to the concentration gradient, the analysis mode is log (inhibitor) vs. Nonlinear regression (curve fit), and the calculated IC50 value is expressed as x+/−SD.
The FASN enzyme activity measurement method shown in Experimental Example 18 is used to detect the effects of different substances on FASN enzyme activity. The method shown in Experimental Example 19 is used to detect the effects of different substances on the proliferation of tumor cells, cerulenin is used as a control, and the inhibition rates (%) of different substances on FASN enzyme activity and inhibition rates (IC50 nM) on tumor proliferation are calculated.

Test [2] relates to prostate cancer cells PC-3. The experiment in a line: Growth cycle of PC-3 cells, PI staining flow cytometry (FIG. 3). To be noted: 10 μM treatment group, 24 hours; control group 10.34%.
Source text: […]

For test [3], the system named is prostate cancer cells PC-3. The experiment in a line: Fatty acid content and composition by GC/MS, PC-3 (FIG. 5). Conditions: PC-3, 20 μM, 24 hours.
Source text: […]

Usually IC50 stands for the point on the concentration scale where inhibition reaches its midpoint. Read a high IC50 as weaker potency in that assay.

Each structure is given as a SMILES string.

In the case of `O=C(CCCC(=O)Nc1ccc(Br)cc1)N/N=C/c1cc(Br)ccc1O` [Compound I-1], the half-maximal inhibitory concentration (IC50) in test [1] came out at 13 nM. In addition, the “proportion of PC3 cells in S phase” value in test [2] is 19.10%. Further, in test [3], the “fatty acid content of 16:0” value is reported as “lower than that of the control group” and the “total fatty acid content” value is “significantly lower than that of the control group”.
